≈ marks a conversion by molar mass, not a printed value.
These compounds were tested on M. tuberculosis. Settings: pH 6.8.
Assay type: cell-based, Mycobacterium tuberculosis

SMILES | MIC in the media 7H9 [µg/mL] | MIC in the media L-Ala [µg/mL] | MIC in the media SBA [µg/mL] | MIC in the media SLac [µg/mL]
CCN(CC)CCOc1ccc(C(=C(Cl)c2ccccc2)c2ccccc2)cc1.O=C(O)CC(O)(CC(=O)O)C(=O)O (mixture of isomers) [compound 35770] | ≥ 14.95 | 1.91 | 1.91 | 0.96
N#CC(c1ccccc1)C(CC(=NO)c1ccccc1)c1ccccc1 (mixture of isomers) [compound 186200] | ≥ 136.16 | 17.02 | 34.04 | 2.13
COC(=O)c1cccc([N+](=O)[O-])c1 [compound 1327] | ≥ 72.48 | 9.06 (≈ 50 µM) | 4.53 (≈ 25 µM) | 2.27 (≈ 12.5 µM)
NC(=O)c1ccc([N+](=O)[O-])cc1 [compound 2902] | ≥ 66.44 | 16.61 (≈ 100 µM) | 33.22 (≈ 200 µM) | 8.31 (≈ 50 µM)
CC(C)c1ccc2c(c1)CCC1C(C)(C(=O)O)CCCC21C (stereo not shown) [compound 2952] | ≥ 30.04 | 3.76 (≈ 12.5 µM) | 7.51 (≈ 25 µM) | 1.88 (≈ 6.26 µM)
O=Nc1ccc(O)c2ncccc12 [compound 3852] | ≥ 4.36 | 2.18 (≈ 12.5 µM) | 2.18 (≈ 12.5 µM) | 1.09 (≈ 6.26 µM)
Oc1c(Cl)cc(Cl)c2cccnc12 [compound 3904] | ≥ 4 | 0.03 (≈ 0.14 µM) | 0.03 (≈ 0.14 µM) | 0.03 (≈ 0.14 µM)
CCOC(=O)c1ccc([N+](=O)[O-])cc1 [compound 6763] | ≥ 78.08 | 9.76 (≈ 50 µM) | 4.88 (≈ 25 µM) | 4.88 (≈ 25 µM)
COC(=O)c1cc([N+](=O)[O-])cc([N+](=O)[O-])c1 [compound 7317] | ≥ 90.44 | 11.31 (≈ 50 µM) | 5.65 (≈ 25 µM) | 5.65 (≈ 25 µM)
CCC(C)(C)c1ccc(Oc2cccc(C(=O)O)c2)cc1 [compound 7962] | ≥ 28.43 | 3.55 (≈ 12.5 µM) | 3.55 (≈ 12.5 µM) | 0.45 (≈ 1.58 µM)
CN(C)c1ccc(N=Nc2ccccn2)cc1 [compound 9358] | ≥ 22.63 | 5.66 (≈ 25 µM) | 1.41 (≈ 6.23 µM) | 1.41 (≈ 6.23 µM)
N=C(N)c1ccc(OCCCCCOc2ccc(C(=N)N)cc2)cc1 [compound 9921] | ≥ 8.51 | 2.13 (≈ 6.26 µM) | 4.26 (≈ 12.5 µM) | 1.09 (≈ 3.2 µM)
Oc1ccc(Cc2ccccc2Cl)c(O)c1 [compound 11149] | ≥ 23.47 | 5.87 (≈ 25 µM) | 2.93 (≈ 12.5 µM) | 1.47 (≈ 6.26 µM)
Oc1ccc(Cc2ccc(Cl)cc2)c(O)c1 [compound 11150] | ≥ 23.47 | 5.87 (≈ 25 µM) | 2.93 (≈ 12.5 µM) | 1.47 (≈ 6.26 µM)
COc1ccc2nc3cc(Cl)ccc3c(Nc3cc(C(C)C)c(O)cc3C)c2c1 [compound 13051] | ≥ 20.35 | 2.54 (≈ 6.24 µM) | 2.54 (≈ 6.24 µM) | 1.30 (≈ 3.19 µM)
NC(=O)c1cccnc1 [compound 13128] | ≥ 800 | 400 (≈ 3280 µM) | 400 (≈ 3280 µM) | 400 (≈ 3280 µM)
COc1cc(N)c2ncccc2c1 [compound 13573] | ≥ 8.71 | 8.71 (≈ 50 µM) | 8.71 (≈ 50 µM) | 17.42 (≈ 100 µM)
NC(=O)c1cnccn1 [compound 14911] | ≥ 800 | 200 (≈ 1620 µM) | 100 (≈ 812 µM) | 200 (≈ 1620 µM)
CCCOC(=O)c1ccc(N)cc1 [compound 23516] | ≥ 800 | 0.12 (≈ 0.67 µM) | 0.25 (≈ 1.39 µM) | 0.25 (≈ 1.39 µM)
CN(C)CCCN1c2ccc3ccccc3c2Sc2cccc(Cl)c21 [compound 24113] | ≥ 9.22 | 2.31 (≈ 6.26 µM) | 2.31 (≈ 6.26 µM) | 1.18 (≈ 3.2 µM)
CCOc1ccc(Nc2c3ccccc3nc3ccccc23)cc1 [compound 30205] | ≥ 1.97 | 1.97 (≈ 6.27 µM) | 3.93 (≈ 12.5 µM) | 1.97 (≈ 6.27 µM)
COC(=O)c1ccc(N)cc1O [compound 30263] | ≥ 4.18 | 1.05 (≈ 6.28 µM) | 4.18 (≈ 25 µM) | 1.05 (≈ 6.28 µM)
CCCCCc1cc(O)cc2c1Oc1cc(O)cc(C(=O)CCCC)c1C(=O)O2 [compound 31867] | ≥ 39.84 | 4.98 (≈ 12.5 µM) | 2.49 (≈ 6.25 µM) | 0.64 (≈ 1.61 µM)
CCOC(=O)c1cccc([N+](=O)[O-])c1 [compound 32740] | ≥ 78.08 | 2.44 (≈ 12.5 µM) | 4.88 (≈ 25 µM) | 2.44 (≈ 12.5 µM)
O=C1CC(c2ccc(O)cc2)Oc2cc(O)cc(O)c21 (stereo not shown) [compound 34875] | ≥ 27.23 | 6.81 (≈ 25 µM) | 6.81 (≈ 25 µM) | 1.70 (≈ 6.24 µM)

— patent US20240148723A1, “MYCOBACTERIUM TUBERCULOSIS COMPOSITIONS AND METHODS” (priority 2021, published 2024)
